Laboratory results reported in article PMC9814779, “A triple farnesoid X receptor and peroxisome proliferator-activated receptor α/δ activator reverses hepatic fibrosis in diet-induced NASH in mice” (Communications Chemistry, 2020).

Experiments:
[1] = biological target: T1, human PPARγ ligand-binding domain (Gal4 chimera) (Homo sapiens, UniProt P37231); assay: Gal4 hybrid reporter gene assay, PPARγ; format: cell-based; set-up: Emax: dose or concentration left out as unconfirmed
T1 construct: coding for the hinge region and LBD of the canonical isoform of the respective nuclear receptor; expressed in transfected cells; host or cells: HEK293T
T1 sequence (P37231 238-503 limits assumed): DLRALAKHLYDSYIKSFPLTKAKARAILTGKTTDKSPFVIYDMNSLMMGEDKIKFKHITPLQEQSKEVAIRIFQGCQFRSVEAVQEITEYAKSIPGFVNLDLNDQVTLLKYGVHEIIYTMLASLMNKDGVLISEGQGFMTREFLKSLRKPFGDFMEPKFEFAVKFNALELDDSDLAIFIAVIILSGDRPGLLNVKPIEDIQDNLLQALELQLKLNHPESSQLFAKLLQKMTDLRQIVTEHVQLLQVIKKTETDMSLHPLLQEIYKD

[2] = system: nuclear receptors related to PPARs and FXR (LXRα/β, RXRα/β/γ, RARα/β/γ, VDR, CAR); details: previous studies; cited from earlier work
[3] = biological target: T2, human PPARδ ligand-binding domain (Gal4 chimera) (Homo sapiens, UniProt Q03181); assay: Gal4 hybrid reporter gene assay, PPARδ; format: cell-based; set-up: Emax: dose or concentration left out as unconfirmed
T2 construct: coding for the hinge region and LBD of the canonical isoform of the respective nuclear receptor; expressed in transfected cells; host or cells: HEK293T
T2 sequence (Q03181 211-439 limits assumed): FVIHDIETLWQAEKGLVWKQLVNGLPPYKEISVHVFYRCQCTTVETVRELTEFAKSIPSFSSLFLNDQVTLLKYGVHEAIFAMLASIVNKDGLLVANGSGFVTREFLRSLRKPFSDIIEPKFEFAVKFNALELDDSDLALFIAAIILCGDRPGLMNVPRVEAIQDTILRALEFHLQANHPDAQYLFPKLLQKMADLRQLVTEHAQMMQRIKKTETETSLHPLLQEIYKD

[4] = biological target: T3, human PPARα ligand-binding domain (Gal4 chimera) (Homo sapiens, UniProt Q07869); assay: Gal4 hybrid reporter gene assay, PPARα; format: cell-based; set-up: Emax: dose or concentration left out as unconfirmed
T3 construct: coding for the hinge region and LBD of the canonical isoform of the respective nuclear receptor; expressed in transfected cells; host or cells: HEK293T
T3 sequence (Q07869 239-466 limits assumed): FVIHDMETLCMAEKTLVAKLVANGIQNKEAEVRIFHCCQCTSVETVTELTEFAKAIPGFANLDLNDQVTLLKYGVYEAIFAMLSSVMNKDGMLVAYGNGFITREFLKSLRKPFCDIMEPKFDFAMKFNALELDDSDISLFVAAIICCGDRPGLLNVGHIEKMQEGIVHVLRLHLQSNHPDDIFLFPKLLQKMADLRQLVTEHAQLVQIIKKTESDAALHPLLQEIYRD

[5] = biological target: T4, human FXR:retinoid X receptor (RXR) heterodimer (Homo sapiens, UniProt Q96RI1); assay: Full-length FXR reporter gene assay (BSEP response element) in HeLa cells; format: cell-based; set-up: Emax: dose or concentration left out as unconfirmed; details: HeLa
T4 construct: pcDNA3-hFXR[32] and pSG5-hRXR[33] served for receptor overexpression in the full-length FXR assay; expressed in transfected cells; host or cells: HeLa
T4 sequence (P19793 whole entry): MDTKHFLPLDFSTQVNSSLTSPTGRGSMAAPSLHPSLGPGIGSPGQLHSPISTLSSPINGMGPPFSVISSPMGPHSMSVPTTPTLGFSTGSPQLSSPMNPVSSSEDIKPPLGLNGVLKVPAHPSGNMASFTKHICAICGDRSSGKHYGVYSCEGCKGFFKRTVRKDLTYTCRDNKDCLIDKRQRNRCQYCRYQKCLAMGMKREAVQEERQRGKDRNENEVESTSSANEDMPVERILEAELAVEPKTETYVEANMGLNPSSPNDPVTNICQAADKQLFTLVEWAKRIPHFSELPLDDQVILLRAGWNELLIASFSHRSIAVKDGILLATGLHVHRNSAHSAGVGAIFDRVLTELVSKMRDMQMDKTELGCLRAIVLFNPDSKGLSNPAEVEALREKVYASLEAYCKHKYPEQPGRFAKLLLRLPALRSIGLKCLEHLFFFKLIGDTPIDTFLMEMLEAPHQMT
T4 sequence (Q96RI1 whole entry): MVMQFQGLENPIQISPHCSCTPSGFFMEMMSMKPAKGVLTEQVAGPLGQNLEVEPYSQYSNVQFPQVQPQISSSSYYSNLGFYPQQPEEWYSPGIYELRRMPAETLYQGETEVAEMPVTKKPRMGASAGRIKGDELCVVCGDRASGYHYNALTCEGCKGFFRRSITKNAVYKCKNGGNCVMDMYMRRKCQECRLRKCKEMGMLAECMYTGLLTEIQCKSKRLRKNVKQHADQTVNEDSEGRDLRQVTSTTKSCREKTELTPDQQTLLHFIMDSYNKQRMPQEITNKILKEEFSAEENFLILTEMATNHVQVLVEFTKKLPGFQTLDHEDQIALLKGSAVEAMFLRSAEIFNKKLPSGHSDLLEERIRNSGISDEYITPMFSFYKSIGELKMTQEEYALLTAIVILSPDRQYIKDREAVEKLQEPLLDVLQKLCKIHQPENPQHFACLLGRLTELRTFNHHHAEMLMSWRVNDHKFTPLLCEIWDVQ

[6] = system: FXR- and PPAR-regulated gene expression in HepG2 cells; assay: FXR- and PPAR-regulated gene expression in HepG2 cells (qRT-PCR); format: cell-based, human; details: HepG2, 1 µM, 12 h, vs. vehicle-treated cells
Protocol: HepG2 cells (DSMZ) were grown in DMEM high glucose, supplemented with 10% FCS, 1 mM SP, penicillin (100 U/mL), and streptomycin (100 μg/mL) at 37 °C and 5% CO2 and seeded in 6-well plates (2 × 10^6 per well). After 24 h, medium was changed to Minimal Essential Medium supplemented with 1% charcoal-stripped FCS, penicillin (100 U/mL), streptomycin (100 μg/mL), and 2 mM L-glutamine. After an additional 24 h, cells were incubated with test compound 41 (0.1 µM, 0.3 µM, 1 μM), OCA (1 μM), or elafibranor (1 µM) dissolved in the same medium with 0.1% DMSO or medium with 0.1% DMSO alone as untreated control for 12 h, harvested, washed with cold phosphate-buffered saline (PBS), and then directly used for RNA extraction. C2C12 cells (American Type Culture Collection, ATCC) were grown in DMEM high glucose, supplemented with 10% FCS, 1 mM SP, penicillin (100 U/mL), and streptomycin (100 μg/mL) at 37 °C and 5% CO2 and seeded in 6-well plates (1 × 10^6 per well). Upon reaching confluence, medium was changed to Eagle’s Minimal Essential Medium supplemented with 2% horse serum, penicillin (100 U/mL), streptomycin (100 μg/mL), and 2 mM L-glutamine. Cells were then differentiated in this medium for 5 days before incubation with test compounds 41 (1 μM) or L165,041 (1 μM) dissolved in the same medium with 0.1% DMSO or medium with 0.1% DMSO alone as untreated control for 8 h. Cells were harvested, washed with cold PBS, and then directly used for RNA extraction. Total RNA was extracted from HepG2 cells or C2C12 cells using the total RNA Mini Kit (R6834-02, Omega Bio-Tek, Inc., Norcross, GA, USA). Two micrograms of extracted RNA were then reverse-transcribed into cDNA with the High-Capacity cDNA Reverse Transcription Kit (4368814, Thermo Fischer Scientific, Inc.). FXR- and PPAR-regulated gene expression was then studied by quantitative real-time PCR (qRT-PCR) analysis with a StepOnePlus System (Life Technologies, Carlsbad, CA, USA) using PowerSYBRGreen (Life Technologies; 12.5 μL per well). Each sample was set up in duplicates and repeated in four independent experiments. Data were analyzed by the comparative ΔΔCT method with glyceraldehyde 3-phosphate dehydrogenase (GAPDH) as reference gene. The following primers were used for HepG2 cells (human genes): hGAPDH: 5 ′-ATATGATTCCACCCATGGCA (fw), 5′-GATGATGACCCTTTTGGCTC (rev); hSHP: 5′-GCTGTCTGGAGTCCTTCTGG (fw), 5′-CCAATGATAGGGCGAAAGAAGAG (rev); hCYP7A1: 5′-CACCTTGAGGACGGTTCCTA (fw), 5′-CGATCCAAAGGGCATGTAGT (rev); hBSEP: 5′-CATGGTGCAAGAAGTGCTGAGT (fw), 5′-AAGCGATGAGCAACTGAAATGAT (rev); hACOX: 5′-ACT CGC AGC CAG CGT TAT G (fw), 5′-AGG GTC AGC GAT GCC AAA C (rev); hPDK4: 5′-AGAGCCTGATGGATTTGGTG (fw), 5′-GCTTGGGTTTCCTGTCTGTG (rev); hCPT1: 5′-ACAGTCGGTGAGGCCTCTTAT (fw), 5′-TCTTGCTGCCTGAATGTGAGT (rev); hFGF21: 5′-ATGGATCGCTCCACTTTGACC (fw), 5′-GGGCTTCGGACTGGTAAACAT (rev). The following primers were used for C2C12 cells (murine genes)[36]: mGAPDH: 5′-CGACTTCAACAGCAACTCCCACTCTTCC (fw), 5′-TGGGTGGTCCAGGGTTTCTTACTCCTT (rev); mPCK: 5′-TGTTTACTGGGAAGGCATCG (fw), 5′-CAGAATCTCGAGTTGGGATGG (rev); mGLUT3: 5′-CGTCCTTGAAGATTCCTGTTGA (fw), 5′-GTC ACC CAA CTA CGT CCA G (rev); mLPL: 5′-GTCAGGTTCTCTCTTGTACAGG (fw), 5′-TCTAACTGCCACTTCAACCAC (rev).

[7] = system: diet-induced mouse model of NASH; details: cited from earlier work
[8] = system: HEK293T and U2OS cells; assay: Multiplex high-content live-cell toxicity assay; format: cell-based; details: seven concentrations between 100 nM and 100 µM; 2, 12 and 24 h
Protocol: Before proof-of-concept in vivo evaluation, we profiled stability and cytotoxicity of the triple modulator 41 in vitro. […] To determine cytotoxicity, we employed a multiplex high-content life-cell imaging screen[24] on HEK293T and U2OS cells. For this, the cells were treated with fluorescent probes to detect Annexin V as apoptosis marker (Annexin V Alexa488), dead cells (Yo-Pro3), and DNA/nucleus (Hoechst33342). Cells were then incubated with 41, OCA, or elafibranor at seven concentrations between 100 nM and 100 µM, and cell health was determined by fluorescence imaging after 2, 12, and 24 h (Fig. 6g–i and Supplementary Fig. 5).
Supplementary Methods for in Vitro Characterization
Cytotoxicity was assessed in a high content screen on two different cell lines, HEK293T (ATCC® CRL-1573™) and U2OS (ATCC®HTB-96™), essentially as described previously6. In brief, cells were cultured in DMEM plus L-Glutamine (high glucose) supplemented with 10 % FBS (Gibco) and Penicillin/Streptomycin (Gibco). […]
After 2 h, 12 h and 24 h, cellular shape and fluorescence was analyzed on an automated, high-content confocal microscope (CQ1, Yokogawa). […]
50 ms, 40%; bright field, 300ms, 100% transmission, one centered field per well, 7 z stacks per well with 55 µm spacing. Images were analyzed with the Pathfinder software (Yokogawa). Cells were detected and gated as previously described6. […]
The solubilized test compound (5 μL, final concentration 10 μM in phosphate buffer (0.1 M, pH 7.4)) was preincubated at 37 °C in 432 μL of phosphate buffer (0.1 M, pH 7.4) together with a 50 μL NADPH regenerating system (30 mM glucose-6-phosphate, 4 U/mL glucose-6-phosphate dehydrogenase, 10 mM NADP, 30 mM MgCl2). […] The supernatants were analyzed and test compound was quantified by HPLC: mobile phase: MeOH 83%/H2O 17%/formic acid 0.1%; flow-rate: 1 mL/min; stationary phase: MultoHigh Phenyl phase, 5 μm, 250×4, precolumn, phenyl, 5 μm, 20×4; detection wavelength: 330 and 254 nm; injection volume: 50 μL. […]

[9] = system: STAM NASH; details: cited from earlier work
[10] = system: choline-deficient, L-amino acid-defined, high-fat diet-induced NASH in mice; set-up: method as in PMID 29164820; details: cited from earlier work
[11] = system: (foz/foz) mice under atherogenic diet; details: without a pronounced effect on hepatic inflammation; cited from earlier work

## O=C(O)Cc1cccc(NC(=O)c2ccccc2NC(=O)c2ccc3ccccc3c2)c1 [compound 5]
[1]
  EC50: 16 ± 1 µM
[1]; read-out: max. rel. act. PPARγ
  Emax: 14%
[2]
  selectivity over related nuclear receptors: selective over related nuclear receptors
[3]; EC50 [μM] PPARδ, HEK293T, mean ± SEM, n = 3
  EC50: 4.9 ± 0.9 µM
[3]; read-out: max. rel. act. PPARδ
  Emax: 34%
[4]; EC50 [μM] PPARα, HEK293T, mean ± SEM, n = 3
  EC50: 5 ± 1 µM
[4]; read-out: max. rel. act. PPARα
  Emax: 37%
[5]; read-out: max. rel. act. FXR
  Emax: 21%
[5]; mean ± SEM, n = 3, read-out: EC50 [μM] FXR
  EC50: 2.5 ± 0.2 µM

## CSc1ccc(C(=O)/C=C/c2cc(C)c(OC(C)(C)C(=O)O)c(C)c2)cc1 [elafibranor]
[6]
  mRNA expression of FXR-regulated genes (BSEP, SHP, CYP7A1): no effect on FXR activity
  mRNA expression of PPAR-regulated genes (ACOX, PDK4, CPT1, FGF21): strongly promoted the expression of PPAR-regulated genes
[7]; OCA 30 mg/kg, OCA/elafibranor 30 mg/kg + 10 mg/kg, elafibranor 10 mg/kg
  anti-steatotic effect: less pronounced
[7]; equivalent, previously reported study
  anti-fibrotic activity: only weak anti-fibrotic activity compared to vehicle
[8]
  cytotoxicity (cell health, apoptosis, necrosis, lysis): non-toxic up to 100 µM concentration over 24 h

## CC[C@@H](Oc1cccc(CN(CCCOc2ccc(OC)cc2)c2nc3ccccc3o2)c1)C(=O)O [pemafibrate]
[9]
  effects in STAM NASH: counter hepatocyte ballooning in STAM NASH without affecting hepatic steatosis and inflammation

## CCO[C@@H](Cc1ccc(OCCn2c(C)ccc2-c2ccc(SC)cc2)cc1)C(=O)O [saroglitazar]
[10]
  anti-steatosis efficacy: stronger anti-steatosis efficacy than the selective agents fenofibrate (PPARα) and pioglitazone (PPARγ)

## CCO[C@H](COc1ccc(C(F)(F)F)cc1)CSc1ccc(OCC(=O)O)c(C)c1 [seladelpar]
[11]
  effects in (foz/foz) mice under atherogenic diet: improved steatosis and hepatocyte ballooning
